Measurements as given in US9169241B2, “Quinolinyloxyphenylsulfonamides” (Max-Planck-Gesellschaft Zur Forderung der Wissenschaften …, priority 2009, dated 2015).
Like-named read-outs stand apart in the source and are kept apart here.

Assays:
Hs578T [1] = assay: Matrigel outgrowth assay/branching assay; type: cell-based; details: Homo sapiens, Hs-578T; HS578T cell line; Table Ib; read-out: Total branching inhibition in Matrigel HS578T
Summary of the method: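 Matrigel 3 mg/ml, polymerized 1 h 37° C; 5000 cells/well + cmpd 3.125/1.56/0.78 μM or DMSO. Imaged 48/72/96 h, 5× objective. Positive = total branching block.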

Hs578T [2] = assay: Apoptosis assay (Cellomics, nucleus condensation); type: cell-based; details: Homo sapiens, Hs-578T, Table III, read-out: Apoptosis induction in Hs578T
Text: (§1) The Cellomics BioApplication (Thermo Fischer Cellomics Products, Pittsburgh, Pa.) is an automated image analysis algorithm that provides detailed analysis of phenotypes related to apoptosis. As one of the most prominent characteristics of apoptotics cell a nucleus condensation takes place. This can be measured fluorescence signal intensity using a CCD camera on fully automated microscope system. The Cellomics system is able to quantify the fluorescence intensity per single nucleus and calculates the variation of signal intensity in each cell population. […] Additionally the number of detected cell decreases normally in apoptotic cell populations. In detail 5000 cell per 96 well were labeled with DNA intercalating dye (Hoechst 33342, Sigma, Steinheim, Germany) to visualize the nucleus in a fluorescence microscope under live conditions. The apoptosis assay was performed 24 h and 48 h after addition of compound at concentrations 12.5 μM, 6.25 μM, 3.125 μM, 1.56 μM, 0.78 μM, 0.39 μM as well as DMSO control for 48 h.

SF763 = assay: Apoptosis assay (Cellomics, nucleus condensation); type: cell-based; details: Table III, read-out: Apoptosis induction in SF763
Text: as §1

U138 = assay: Apoptosis assay (Cellomics, nucleus condensation); type: cell-based; details: Table III, read-out: Apoptosis induction in U138
Text: as §1

SF126 = assay: Apoptosis assay (Cellomics, nucleus condensation); type: cell-based; details: Homo sapiens, SF-126, Table III, read-out: Apoptosis induction in SF126
Text: as §1

C8161 = assay: Apoptosis assay (Cellomics, nucleus condensation); type: cell-based; details: Homo sapiens, Table III, read-out: Apoptosis induction in C8161
Text: as §1

viable cells in culture = assay: Cell viability assay at 10 μM (CellTiter-Glo, Table VII); type: cell-based; details: compound 10 μM, 72 h;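 further: graded A 0-20%; B 21-40%; C 41-60%; D over 60% viable cells relative to DMSO control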
Description: The CellTiter-Glo® Luminescent Cell Viability Assay (Promega Corporation. Madison, Wis., USA) is method a determining the number of viable cells in culture based on quantification of the ATP being present which is an indicator of metabolically active cells was used according to manufacturers protocol. In detail the assay was performed in a 96 well format were 1000 cells/well were incubated with compound at concentration 10 μM as well as DMSO control for 72 h in 100 μl cell culture medium. Percentage of inhibition was calculated compared to ATP amount of DMSO control.

cells = assay: Boyden chamber migration assay (Table VI); type: cell-based; details: Homo sapiens, Hs-578T, 16 h, Hs578T cells; 16 h migration
Description: The Boyden chamber assay is based on a chamber of two medium-filled compartments separated by a microporous membrane of 8 μM (Cell culture insert 8.0 μM pore size, BD Biosciences, Bedford, Mass.). The boyden chamber migration assays were carried out according to the supplier's instructions. In general, 20000 cells are placed in the upper compartment with medium containing 0% FCS plus 0.1% BSA and are allowed to migrate 16 h through the pores of the membrane into the lower compartment, which is filled with cell culture medium containing 10% FCS as chemotactic agents. The cells remaining in the insert were removed with a cotton swab, and the cells on the bottom of the filter were fixed and counted. (Zhang Y X, et al. AXL is a potential target for therapeutic intervention in breast cancer progression. Cancer Res. 2008; 68:1905-15).

tumor cell = assay: Matrigel outgrowth assay/branching assay (Table Va); type: cell-based
Description: The Matrigel outgrowth assay is based on the ability of tumor cell to penetrate a solid gel of extracellular matrix proteins mimicking the metastasis formation in vivo. While cells with low invasive potential appear as roundish cell or cell cluster, cells with high invasive potential penetrate the Matrigel and form polymorphic structures. In detail 65 μl of Matrigel matrix (Matrigel™ Matrix, BD Biosciences, Bedford, Mass., USA) with a concentration of 3 mg/ml have been polymerized in 96 well plates for 1 h at 37° C. Subsequently 5000 cell/well were seeded into each well containing cell culture medium and indicated compound with concentrations of 3.125 μM, 1.56 μM and 0.78 μM as well as DMSO control. After 48 h, 72 h and 96 h images of cell were taken on an inverted microscope using a 5× objective (Zeiss Axiovert S100 microscope Carl Zeiss UK, Welwyn Garden City, UK). Only compound concentrations were total branching inhibition was evident were accounted as positive. Method was used as previously described, with some modifications (Thompson E W, et al. Association of increased basement membrane invasiveness with absence of estrogen receptor and expression of vimentin in human breast cancer cell lines. J Cell Physiol 1992; 150:534-44).

indicated cell line = assay: Wound healing migration assay (Table IV); type: cell-based; details: compounds at 12.5, 6.25, 3.125 μM, 48 h-72 h
Description: This method mimics cell migration during wound healing in vivo. The basic steps involve creating a “wound” in a cell monolayer, capturing the images at the beginning and at regular intervals during cell migration to close the wound, and comparing the images to quantify the migration rate of the cells. In detail, 150000 cell/24 well have been seeded and allowed to form a monolayer overnight. Subsequently a “wound” or “scratch” has been performed with a 1000 μl pipette tip. The STDV of wound size is normally below 10% at time point t0. The assay was stopped by fixation with 0.05% Crystal violet/20% methanol when control scratches were closed. The assay was terminated between 48 h and 72 h depending on the migration potential of the indicated cell line. The “wounds” were visualized with a Zeiss Axiovert S100 microscope (Carl Zeiss UK, Welwyn Garden City, UK). The tested compounds were used at 12.5 μM, 6.25, 3.125 μM and DMSO control. IC50 values have been calculated as 50% wound size in between t0 and t48 or t72.

U118 = assay: Apoptosis assay (Cellomics, nucleus condensation); type: cell-based; details: Table III, read-out: Apoptosis induction in U118
Text: as §1

[3] = Homo sapiens, HCT-116, HCT116 def, read-out: percentage (%) of viable cells HCT 116def
[4] = Homo sapiens, HCT-116, HCT116 wt, read-out: percentage (%) of viable cells HCT 116wt
[5] = Homo sapiens, HT-29, HT29, read-out: percentage (%) of viable cells HT29
[6] = Homo sapiens, NCI-H358, H358, read-out: percentage (%) of viable cells H358
[7] = Homo sapiens, NCI-H1650, H1650, read-out: percentage (%) of viable cells H1650
[8] = Homo sapiens, NCI-H1666, H1666, read-out: percentage (%) of viable cells H1666
[9] = Homo sapiens, NCI-H1975, H1975, read-out: percentage (%) of viable cells H1975
[10] = Homo sapiens, NCI-H1993, H1993, read-out: percentage (%) of viable cells H1993
[11] = Homo sapiens, A549, read-out: percentage (%) of viable cells A549
[12] = Homo sapiens, HCC827, read-out: percentage (%) of viable cells HCC827
[13] = Homo sapiens, SW480, read-out: percentage (%) of viable cells SW480
[14] = RKO, read-out: percentage (%) of viable cells RKO
[15] = Homo sapiens, C8161 cells, read-out: Total branching inhibition in Matrigel C8161
[16] = Homo sapiens, Hs-578T, Hs578T cells, read-out: Total branching inhibition in Matrigel Hs578T
[17] = U118 cells, read-out: Total branching inhibition in Matrigel U118
[18] = U138 cells, read-out: Total branching inhibition in Matrigel U138
[19] = Homo sapiens, C8161 cells, read-out: IC50 Wound healing Assay C8161
[20] = SF763 cells, read-out: IC50 Wound healing Assay SF763

Compound	IC50 (Hs578T [2])	IC50 (SF763)	IC50 (U138)	IC50 (SF126)	IC50 (C8161)	viability at 10 µM (viable cells in culture; [3])	viability at 10 µM (viable cells in culture; [4])	viability at 10 µM (viable cells in culture; [5])	viability at 10 µM (viable cells in culture; [6])	viability at 10 µM (viable cells in culture; [7])	viability at 10 µM (viable cells in culture; [8])	viability at 10 µM (viable cells in culture; [9])	viability at 10 µM (viable cells in culture; [10])	viability at 10 µM (viable cells in culture; [11])	viability at 10 µM (viable cells in culture; [12])	viability at 10 µM (viable cells in culture; [13])	viability at 10 µM (viable cells in culture; [14])	IC50 (cells)	IC50 (tumor cell; [15])	IC50 (tumor cell; [16])	also measured
COc1cc2c(Oc3ccc(NS(=O)(=O)c4ccccc4C#N)cc3F)ccnc2cc1OCCCN1CCN(C)CC1 [Example 15, 2-Cyano-N-(3-fluoro-4-{6-methoxy-7-[3-(4-methyl-piperazin-1-yl)-propoxy]-quinolin-4-yloxy}-phenyl)-benzenesulfonamide]	≤ 12.5 µM	≤ 12.5 µM	≤ 12.5 µM	≤ 12.5 µM	≤ 12.5 µM	> 60%	> 60%	41 to 60%	41 to 60%	41 to 60%	41 to 60%	41 to 60%	21 to 40%	> 60%	> 60%	21 to 40%	41 to 60%	≤ 5 µM	≤ 5 µM	≤ 5 µM	IC50 (Hs578T [1]): ≤ 10 µM; melting point: 109 to 111 °C; IC50 (tumor cell; [17]): ≤ 5 µM; IC50 (tumor cell; [18]): ≤ 5 µM; IC50 (indicated cell line; [19]): 12.5 to 50 µM; IC50 (indicated cell line; [20]): ≤ 12.5 µM
COc1cc2c(Oc3ccc(NS(=O)(=O)c4ccc(F)cc4F)cc3F)ccnc2cc1OCCCN1CCN(C)CC1 [Example 16, 2,4-Difluoro-N-(3-fluoro-4-{6-methoxy-7-[3-(4-methyl-piperazin-1-yl)-propoxy]-quinolin-4-yloxy}-phenyl)-benzenesulfonamide]	≤ 12.5 µM	≤ 12.5 µM	≤ 12.5 µM	≤ 12.5 µM	≤ 12.5 µM	41 to 60%	41 to 60%	21 to 40%	0 to 20%	21 to 40%	41 to 60%	0 to 20%	21 to 40%	41 to 60%	41 to 60%	0 to 20%	21 to 40%	≤ 5 µM	≤ 5 µM	5 to 50 µM	melting point: 99 to 102 °C; IC50 (tumor cell; [17]): 5 to 50 µM; IC50 (tumor cell; [18]): ≤ 5 µM; IC50 (indicated cell line; [19]): 12.5 to 50 µM; IC50 (indicated cell line; [20]): 12.5 to 50 µM
COc1cc2c(Oc3ccc(NS(=O)(=O)c4cc(F)ccc4F)cc3F)ccnc2cc1OCC1CCCNC1 (centres unmarked) [Example 80, 2,5-Difluoro-N-{3-fluoro-4-[6-methoxy-7-(piperidin-3-ylmethoxy)-quinolin-4-yloxy]-phenyl}-benzenesulfonamide]	≤ 12.5 µM	12.5 to 50 µM	12.5 to 50 µM	12.5 to 50 µM	12.5 to 50 µM	21 to 40%	21 to 40%	41 to 60%	0 to 20%	> 60%	21 to 40%	0 to 20%	0 to 20%	> 60%	21 to 40%	0 to 20%	0 to 20%	≤ 5 µM	≤ 5 µM	≤ 5 µM	IC50 (U118): ≤ 12.5 µM; IC50 (tumor cell; [17]): ≤ 5 µM; IC50 (tumor cell; [18]): 5 to 50 µM; IC50 (indicated cell line; [19]): ≤ 12.5 µM; IC50 (indicated cell line; [20]): ≤ 12.5 µM
CCN(CC)CCCOc1cc2nccc(Oc3ccc(NS(=O)(=O)c4ccccc4C(F)(F)F)cc3F)c2cc1OC [Example 101, N-{4-[7-(3-Diethylamino-propoxy)-6-methoxy-quinolin-4-yloxy]-3-fluoro-phenyl}-2-trifluoromethyl-benzenesulfonamide]	≤ 12.5 µM	≤ 12.5 µM	≤ 12.5 µM	12.5 to 50 µM	≤ 12.5 µM	21 to 40%	21 to 40%	0 to 20%	0 to 20%	41 to 60%	41 to 60%	41 to 60%	21 to 40%	41 to 60%	21 to 40%	0 to 20%	0 to 20%	≤ 5 µM	≤ 5 µM	5 to 50 µM	IC50 (Hs578T [1]): 10 to 25 µM; IC50 (tumor cell; [17]): ≤ 5 µM; IC50 (tumor cell; [18]): 5 to 50 µM; IC50 (indicated cell line; [19]): 12.5 to 50 µM; IC50 (indicated cell line; [20]): 12.5 to 50 µM
